In US11834453B2, “Substituted pyrimido[5,4-d]pyrimidines as HER2 inhibitors” (Array BioPharma Inc., priority 2020, dated 2023):
Read-outs that look alike come from different tables or passages of the source.

Experiments:
ErbB2 WT = ErbB2 WT (Homo sapiens (Human), UniProt P04626); test: ErbB enzyme assay (CisBio HTRF KinEASE-TK), Assay 2; format: biochemical
Procedure, shortened: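 Readout is HTRF KinEASE-TK, using Sa-XL665 and cryptate antibody for 1 h at 22 °C, as percent of control between DMSO-only (100) and pre-quenched (0) reactions. The kinase reaction runs 30 min at 22 °C with 1 mM ATP and 250 nM biotinylated TK substrate, in HEPES pH 7.4 with MgCl2 and 2% DMSO.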

[1] = biological target: ErbB2 insYVMA (HER2-YVMA, SEQ ID NO: 2) (Homo sapiens, UniProt P04626, INS775YVMA/P1170A); test: biochemical; conditions: ErbB2 insYVMA enzyme assay
[2] = biological target: ErbB2 with Exon 20 YVMA insertion (HER2-YVMA) (Homo sapiens (Human), UniProt P04626, INS775YVMA); test: Cellular phosphorylation assay, constitutive ErbB2 phosphorylation (Y1196) in engineered NIH 3T3 cells, Assay 4; format: cell-based
Procedure, shortened: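 In-cell Western in NIH 3T3 cells carrying ErbB2 exon 20 YVMA insertion, with no ligand stimulation. One hour compound exposure at 37 °C before fixation and anti-pY1196 plus GAPDH staining with dual-wavelength fluorescence. IC50 derived after GAPDH normalization.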

EGFR wild type (EGFR WT) = EGFR wild type (EGFR WT) (Homo sapiens (Human), UniProt P00533); test: Cellular phosphorylation assay, EGF-stimulated EGFR phosphorylation in engineered NIH 3T3 cells, Phospho-EGFR DuoSet IC ELISA, Assay 5; format: cell-based
Experimental: NIH 3T3 cells were engineered to express EGFR wild type (EGFR WT; Assay 5, no footnote) with constructs obtained from GenScript and grown in DMEM supplemented with 10% fetal bovine serum and 15 μg/ml blasticidin. Cells were plated in 96-well plates at 20,000 cells/well and allowed to attach overnight at 37° C./5% CO2. Serially diluted compounds were added to the plates for 1 hour at 37° C./5% CO2. EGFR WT cells were stimulated with 100 ng/ml rEGF for an additional 10 minutes at 37° C./5% CO2. After compound incubation, medium was removed from the cells, which were then lysed in 100 μL/well lysis buffer according to the manufacturer's protocol (R&D Systems, DYC1095, Human Phospho-EGFR DuoSet IC ELISA). Same protocol was followed to determine the total levels of phospho-EGFR by measuring the optical density of each well using a VersaMax microplate reader. Curves were then generated and IC50 values calculated.

EGFR = EGFR (Homo sapiens (Human), UniProt P00533); test: ErbB enzyme assay (CisBio HTRF KinEASE-TK), Assay 3; format: biochemical
Procedure, shortened: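 Using a time-resolved FRET read-out, tyrosine phosphorylation of 250 nM biotin substrate at 1 mM ATP (pH 7.4, 10 mM MgCl2, 2% DMSO, 22 °C, 30 min) was quantified against DMSO and pre-quenched controls; IC50 taken at 50% of control.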

ErbB2 WT, sequence (P04626 23-1255): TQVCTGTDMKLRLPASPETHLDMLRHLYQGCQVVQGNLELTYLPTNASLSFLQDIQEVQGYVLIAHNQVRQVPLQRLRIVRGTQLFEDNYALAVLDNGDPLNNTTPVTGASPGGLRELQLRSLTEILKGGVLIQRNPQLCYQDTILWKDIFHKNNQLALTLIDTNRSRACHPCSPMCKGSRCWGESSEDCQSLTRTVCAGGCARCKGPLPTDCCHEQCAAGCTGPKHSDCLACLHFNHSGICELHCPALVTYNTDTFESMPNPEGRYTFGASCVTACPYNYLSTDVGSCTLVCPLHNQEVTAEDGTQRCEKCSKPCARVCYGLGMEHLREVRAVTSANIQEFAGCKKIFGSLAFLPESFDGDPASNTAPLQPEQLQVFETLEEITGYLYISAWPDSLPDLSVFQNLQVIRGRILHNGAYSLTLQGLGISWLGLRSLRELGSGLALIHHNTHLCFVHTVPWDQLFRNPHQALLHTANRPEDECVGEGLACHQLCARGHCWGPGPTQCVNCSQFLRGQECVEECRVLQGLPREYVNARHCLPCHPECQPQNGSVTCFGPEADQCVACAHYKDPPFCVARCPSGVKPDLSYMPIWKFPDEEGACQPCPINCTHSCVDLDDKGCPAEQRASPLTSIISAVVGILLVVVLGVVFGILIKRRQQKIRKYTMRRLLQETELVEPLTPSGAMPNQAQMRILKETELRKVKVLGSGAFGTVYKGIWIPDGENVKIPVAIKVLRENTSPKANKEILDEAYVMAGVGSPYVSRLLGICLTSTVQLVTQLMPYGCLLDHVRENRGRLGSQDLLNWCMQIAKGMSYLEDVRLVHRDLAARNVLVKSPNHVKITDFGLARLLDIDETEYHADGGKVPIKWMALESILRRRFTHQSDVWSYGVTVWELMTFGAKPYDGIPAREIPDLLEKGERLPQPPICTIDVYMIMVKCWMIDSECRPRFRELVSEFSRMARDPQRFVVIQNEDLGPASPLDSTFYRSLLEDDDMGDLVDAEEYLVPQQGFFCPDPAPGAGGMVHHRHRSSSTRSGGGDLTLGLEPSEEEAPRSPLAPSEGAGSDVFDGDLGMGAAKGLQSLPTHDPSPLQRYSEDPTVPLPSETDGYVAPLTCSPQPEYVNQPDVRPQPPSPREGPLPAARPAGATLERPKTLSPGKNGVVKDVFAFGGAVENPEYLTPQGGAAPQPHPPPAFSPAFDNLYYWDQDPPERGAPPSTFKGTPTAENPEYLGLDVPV
ErbB2 with Exon 20 YVMA insertion (HER2-YVMA), sequence (P04626 other isoform, or with tags, fused parts or gaps ins YVMA behind 775): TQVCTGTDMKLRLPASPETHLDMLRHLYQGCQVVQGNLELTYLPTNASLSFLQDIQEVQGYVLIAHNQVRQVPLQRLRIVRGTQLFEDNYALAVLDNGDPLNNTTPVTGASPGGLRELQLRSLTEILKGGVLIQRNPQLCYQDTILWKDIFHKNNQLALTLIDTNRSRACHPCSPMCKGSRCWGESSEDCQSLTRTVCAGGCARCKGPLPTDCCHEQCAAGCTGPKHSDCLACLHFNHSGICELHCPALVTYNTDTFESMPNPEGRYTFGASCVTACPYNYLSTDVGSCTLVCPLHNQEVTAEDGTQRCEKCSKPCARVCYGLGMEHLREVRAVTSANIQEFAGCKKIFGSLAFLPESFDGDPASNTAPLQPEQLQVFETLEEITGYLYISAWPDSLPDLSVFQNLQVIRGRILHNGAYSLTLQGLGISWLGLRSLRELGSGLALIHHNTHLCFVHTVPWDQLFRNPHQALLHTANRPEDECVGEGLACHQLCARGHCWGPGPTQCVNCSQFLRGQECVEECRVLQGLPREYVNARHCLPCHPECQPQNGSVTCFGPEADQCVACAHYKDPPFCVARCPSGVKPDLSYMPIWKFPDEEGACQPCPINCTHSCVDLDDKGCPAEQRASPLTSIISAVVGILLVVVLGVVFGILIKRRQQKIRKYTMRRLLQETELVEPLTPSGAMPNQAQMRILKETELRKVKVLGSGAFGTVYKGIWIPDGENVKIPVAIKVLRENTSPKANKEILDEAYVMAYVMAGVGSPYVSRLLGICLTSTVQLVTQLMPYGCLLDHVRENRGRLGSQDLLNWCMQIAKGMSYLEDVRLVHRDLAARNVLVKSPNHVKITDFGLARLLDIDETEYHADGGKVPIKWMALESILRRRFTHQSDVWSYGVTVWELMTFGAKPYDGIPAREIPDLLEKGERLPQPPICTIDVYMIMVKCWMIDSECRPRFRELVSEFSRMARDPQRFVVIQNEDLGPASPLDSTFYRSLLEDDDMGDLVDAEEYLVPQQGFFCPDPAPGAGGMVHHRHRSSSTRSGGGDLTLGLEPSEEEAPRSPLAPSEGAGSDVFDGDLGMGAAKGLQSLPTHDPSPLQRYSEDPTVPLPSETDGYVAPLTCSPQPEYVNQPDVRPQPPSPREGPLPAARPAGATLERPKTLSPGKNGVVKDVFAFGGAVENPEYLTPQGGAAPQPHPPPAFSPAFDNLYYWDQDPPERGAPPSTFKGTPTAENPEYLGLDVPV
EGFR, sequence (P00533 25-1210): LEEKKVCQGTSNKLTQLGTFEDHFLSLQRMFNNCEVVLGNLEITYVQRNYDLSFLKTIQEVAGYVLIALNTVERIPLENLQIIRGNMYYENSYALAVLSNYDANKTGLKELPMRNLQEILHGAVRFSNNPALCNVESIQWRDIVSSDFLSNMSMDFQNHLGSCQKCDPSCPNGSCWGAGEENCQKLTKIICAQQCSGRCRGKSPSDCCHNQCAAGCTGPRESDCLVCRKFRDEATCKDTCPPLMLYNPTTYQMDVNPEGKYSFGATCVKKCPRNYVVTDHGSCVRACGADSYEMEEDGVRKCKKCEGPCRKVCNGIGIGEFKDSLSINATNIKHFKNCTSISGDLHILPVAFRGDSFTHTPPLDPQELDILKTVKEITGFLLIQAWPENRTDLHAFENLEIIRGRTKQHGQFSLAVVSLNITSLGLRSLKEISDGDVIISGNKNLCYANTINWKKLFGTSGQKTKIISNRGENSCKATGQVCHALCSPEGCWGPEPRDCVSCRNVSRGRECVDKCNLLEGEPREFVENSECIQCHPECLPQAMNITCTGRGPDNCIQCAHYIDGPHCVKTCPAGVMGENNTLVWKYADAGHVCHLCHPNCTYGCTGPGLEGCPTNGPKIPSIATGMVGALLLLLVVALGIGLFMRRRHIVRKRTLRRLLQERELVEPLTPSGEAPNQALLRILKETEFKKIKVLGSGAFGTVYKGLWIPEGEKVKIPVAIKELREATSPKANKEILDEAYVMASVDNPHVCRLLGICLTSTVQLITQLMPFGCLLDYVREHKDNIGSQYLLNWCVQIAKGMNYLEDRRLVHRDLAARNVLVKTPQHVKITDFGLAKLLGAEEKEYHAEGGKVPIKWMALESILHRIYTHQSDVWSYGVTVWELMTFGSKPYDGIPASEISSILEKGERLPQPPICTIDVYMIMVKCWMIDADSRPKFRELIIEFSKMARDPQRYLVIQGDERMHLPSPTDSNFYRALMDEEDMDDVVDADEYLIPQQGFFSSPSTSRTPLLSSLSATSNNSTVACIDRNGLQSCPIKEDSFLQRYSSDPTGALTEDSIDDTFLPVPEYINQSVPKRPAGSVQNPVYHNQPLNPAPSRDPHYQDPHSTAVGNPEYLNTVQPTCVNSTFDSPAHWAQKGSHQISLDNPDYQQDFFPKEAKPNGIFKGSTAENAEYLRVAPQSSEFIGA
EGFR wild type (EGFR WT), sequence (P00533 25-1210): as above

SMILES	IC50 (ErbB2 WT)	IC50 ([1]; read-out: Assay 1 IC50)	IC50 [2]	IC50 (EGFR wild type (EGFR WT))	IC50 (EGFR)	IC50 ([1]; Assay 1 IC50 (nM))
Cc1cc(Nc2ncnc3cnc(O[C@H]4CNCC4(F)F)nc23)ccc1Oc1ccc2c(c1)ncn2C [Example 303]	0.403 µM	64.2 nM	0.257 µM	≥ 5 µM	≥ 10 µM	
Cc1cc(Nc2ncnc3cnc(N4CC5(C4)CC5(F)F)nc23)ccc1Oc1ccc2c(c1)ncn2C [Example 300]	0.284 µM	75.5 nM	0.0307 µM	≥ 5 µM	≥ 10 µM	
O[C@@H]1CN(c2ncc3ncnc(Nc4ccc(Oc5ccn6ncnc6c5)c(Cl)c4)c3n2)CC1(F)F [Example 323]	0.0754 µM	12.2 nM	0.0599 µM	≥ 5 µM	9.72 µM	
Cc1cc(Nc2ncnc3cnc(N4C[C@H]5C[C@@H]4CO5)nc23)c(F)cc1Oc1ccc2c(c1)ncn2C [Example 481]	0.0412 µM	29.4 nM	0.0742 µM	≥ 5 µM	≥ 10 µM	
Cc1cc(Nc2ncnc3cnc(N(CC(F)F)CC(F)F)nc23)ccc1Oc1ccc2c(c1)ncn2C [Example 344]	0.675 µM	161 nM	0.128 µM	≥ 5 µM	≥ 10 µM	
Cc1cc(Nc2ncnc3cnc(N4CCN[C@H](C(F)(F)F)C4)nc23)ccc1Oc1ccn2ncnc2c1 [Example 355]	0.0245 µM	19.3 nM	0.182 µM	≥ 5 µM	5.04 µM	
Cc1cc(Nc2ncnc3cnc(N(C)CC(C)(C)C#N)nc23)ccc1Oc1ccc2c(c1)ncn2C [Example 205, 2,2-dimethyl-3-(methyl(8-((3-methyl-4-((1-methyl-1H-benzo[d]imidazol-5-yl)oxy)phenyl)amino)pyrimido[5,4-d]pyrimidin-2-yl)amino)propanenitrile]	0.104 µM	29.7 nM	0.0256 µM	≥ 5 µM	≥ 10 µM	
Cc1cc(Nc2ncnc3cnc(N4CCC45COC5)nc23)ccc1Oc1ccc2c(c1)ncn2C [Example 27, N-(3-methyl-4-((1-methyl-1H-benzo[d]imidazol-5-yl)oxy)phenyl)-6-(6-oxa-1-azaspiro[3.3]heptan-1-yl)pyrimido[5,4-d]pyrimidin-4-amine]	0.0508 µM	20 nM	0.0093 µM	≥ 5 µM	≥ 10 µM	
Cc1cc(Nc2ncnc3cnc(O[C@H]4CCN(C)C[C@H]4F)nc23)ccc1Oc1ccc2c(c1)ncn2C [Example 286]	0.468 µM	98.1 nM	0.0814 µM	≥ 5 µM	≥ 10 µM	
CC1(C)CN(c2ncc3ncnc(Nc4ccc(Oc5ccn6ncnc6c5)c(Cl)c4)c3n2)CC[C@@H]1O [Example 337]	0.0133 µM	17 nM	0.0703 µM	≥ 5 µM	2.49 µM	
Cc1cc(Nc2ncnc3cnc(N4CCP(C)(=O)CC4)nc23)ccc1Oc1ccc2c(c1)ncn2C [Example 463]	0.275 µM	71.3 nM	0.662 µM	≥ 5 µM	≥ 10 µM	
FC(F)O[C@@H]1CCN(c2ncc3ncnc(Nc4ccc(Oc5ccn6ncnc6c5)c(Cl)c4)c3n2)C1 [Example 354]	0.029 µM	27.6 nM	0.0722 µM	≥ 5 µM	≥ 10 µM	
Cc1c(Oc2ccc3c(c2)ncn3C)ccc(Nc2ncnc3cnc(N(C)CC(C)(C)O)nc23)c1F [Example 438]	0.047 µM	27.4 nM	0.134 µM	≥ 5 µM	≥ 10 µM	
Cc1cc(Nc2ncnc3cnc(N4CCOCC4)nc23)ccc1Oc1ccc2csnc2c1 [Example 243]	0.264 µM	40.6 nM	0.173 µM	3.04 µM	2.49 µM	
Cc1c(Oc2ccn3ncnc3c2)ccc(Nc2ncnc3cnc(N[C@H]4CNC[C@H]4F)nc23)c1F [Example 318]	0.088 µM	125 nM	0.928 µM	≥ 5 µM	4.33 µM	
Cc1c(Oc2ccn3ncnc3c2)ccc(Nc2ncnc3cnc(N(C)[C@H]4CN(C)C[C@H]4F)nc23)c1F [Example 320]	0.036 µM	12.7 nM	0.271 µM	≥ 5 µM	2.34 µM	
CSc1ncc2ncnc(Nc3ccc(Oc4ccc5c(c4)ncn5C)c(C)c3F)c2n1 [Example 266]	0.796 µM	115 nM	0.642 µM	≥ 5 µM	≥ 10 µM	
CNc1ncc2ncnc(Nc3ccc(Oc4ccc5csnc5c4)c(C)c3)c2n1 [Example 241]	0.123 µM	28.3 nM	0.244 µM	≥ 5 µM	1.64 µM	
Clc1cc(Nc2ncnc3cnc(N4CC[C@@]45CCOC5)nc23)ccc1Oc1ccn2ncnc2c1 [Example 434]	0.0102 µM	8.4 nM	0.161 µM	≥ 5 µM	0.76 µM	
Clc1cc(Nc2ncnc3cnc(N4C[C@H]5CC[C@@H]4CO5)nc23)ccc1Oc1ccn2ncnc2c1 [Example 389]	0.0122 µM	16.7 nM	0.127 µM	≥ 5 µM	≥ 10 µM	
Cc1cc(Nc2ncnc3cnc(N=S4(=O)CCOCC4)nc23)ccc1Oc1ccc2c(c1)ncn2C [Example 138, 4-((8-((3-methyl-4-((1-methyl-1H-benzo[d]imidazol-5-yl)oxy)phenyl)amino)pyrimido[5,4-d]pyrimidin-2-yl)imino)-1,4λ^6-oxathiane 4-oxide]	0.0336 µM	32.2 nM	0.0582 µM	≥ 5 µM	4.91 µM	
CON1CCN(c2ncc3ncnc(Nc4ccc(Oc5ccc6c(c5)ncn6C)c(C)c4F)c3n2)CC1 [Example 142, N-(2-fluoro-3-methyl-4-((1-methyl-1H-benzo[d]imidazol-5-yl)oxy)phenyl)-6-(4-methoxypiperazin-1-yl)pyrimido[5,4-d]pyrimidin-4-amine 2,2,2-trifluoroacetate]	0.0507 µM		0.0727 µM	≥ 5 µM	≥ 10 µM	24.2 nM
Cc1c(Oc2ccn3ncnc3c2)ccc(Nc2ncnc3cnc(N(C)CC4(O)CC4)nc23)c1F [Example 314]	0.0881 µM	29.8 nM	2.02 µM	≥ 5 µM	6.08 µM	
C[C@@H]1CN(c2ncc3ncnc(Nc4ccc(Oc5ccc6c(c5)ncn6C)c(Cl)c4)c3n2)CCO1 [Example 452]	0.115 µM	47.6 nM	0.0202 µM	≥ 5 µM	≥ 10 µM	
Cc1cc(Nc2ncnc3cnc(NC4=NC(C)(C)CO4)nc23)ccc1Oc1ccn2ncnc2c1 [Example 362]	0.0321 µM	26.3 nM	1.26 µM	≥ 5 µM	3.39 µM	
Cc1cc(Nc2ncnc3cnc(O[C@H]4CNCC[C@@H]4F)nc23)ccc1Oc1ccc2c(c1)ncn2C [Example 289]	0.585 µM	109 nM	0.0739 µM	≥ 5 µM	≥ 10 µM	
Cc1cc(Nc2ncnc3cnc(N4C[C@H]5C[C@@H]4C[C@H]5O)nc23)ccc1Oc1ccc2c(c1)ncn2C [Example 459]	0.0366 µM	18.7 nM	0.0451 µM	≥ 5 µM	≥ 10 µM	
